Values of other authors as cited in patent US12270126B2, “Wound dressing” (University of Central Oklahoma, priority 2019, dated 2025).

Columns and labels:
[1] = test system: Bacillus subtilis (B. subtilis)
[2] = test system: Methicillin-resistant S. aureus (MRSA)

Measured: inhibitory effect on microorganism

Cc1ccc(C(C)C)cc1O [carvacrol]
inhibitory effect: Saccharomyces cerevisiae | [1] | E. coli | [2]

Cc1ccc(C(C)C)c(O)c1 [thymol]
inhibitory effect: Saccharomyces cerevisiae | [1] | E. coli | [2]
